Where two headings read alike, the source gives them in different places. Residues, ends and D or L forms follow the SMILES beside them.

For test [1], the target named is T1, HA-OGR1 (GPR68) (Homo sapiens, UniProt Q15743).
T1 construct: HA; expressed in transfected cells
Briefly: Ca2+ mobilization assay (Fluo-4). It counts as cell-based. The following applies: GPR68; data from resynthesized peptide; mean, SEM and n; read-out: Emax, Ca2+ mobilization (% iono). Here is the method: Peptide-dependent Ca^2+ mobilization responses were measured in HEK293 stable cell lines (HA-OGR1 (GPR68) and vector pcDNA) ([Saxena et al., 2012]) that were seeded in 96-well plates (1 × 10^5 cells/well) and cultured at 37°C with 5% CO2 to near confluence in DMEM with 10% FBS (Corning). Six hours prior to assay, medium was changed to pH 8.0 or pH 7.4 HAM’s F12 Nutrient Mixture (GIBCO) without FBS and transferred to a 37°C incubator without CO2. One hour prior to stimulation, cells were incubated in pH 8.0 or pH 7.4 HBSS with Ca^2+ and Mg^2+ (GIBCO), supplemented with 15 mM HEPES, 2 μM Fluo-4 AM (Invitrogen) and 1.5 mM probenecid ([…] to prevent Fluo-4 efflux) as described previously ([Pera et al., 2018]). Indicated peptides were pipetted using an automated system and emission signal was recorded at 525 nm after excitation at 485 nm using Flex Station III (Molecular Devices). Ca^2+ mobilization responses were determined by subtracting basal fluorescence from the net peak of agonist-induced fluorescence. Ionomycin (1 μM) was used to calculate the maximum Ca^2+ signal to normalize peptide-mediated responses.
(In general: A change in cytosolic calcium serves as a functional read-out for many receptors and channels.)

Test [2] addresses GPR68 (Homo sapiens, UniProt Q15743). Kind of test: Real-time receptor internalization (TR-FRET), concentration-response. In kind it is cell-based. Details: hIL-2Ra signal peptide (N); expressed in transfected cells. The following applies: GPR68; mean, SEM and n. Here is the method: 48 hr prior to parallel assaying, SNAP-tagged oGPCR cells were plated (10,000 cells/well) in fibronectin-coated 384-well Epic biosensor microplates (Corning) and poly-D-lysine coated white 384-well plates (for internalization assays). SNAP- GLP-1 receptor was plated alongside orphan receptor cells as an internal assay control for internalization assays. Receptor-expression was induced with 0.1 μg/ml doxycycline.
A TR-FRET real-time internalization assay was used to examine peptide-dependent changes in orphan receptor localization as described previously ([Foster and Bräuner-Osborne, 2018]). Surface-expressed SNAP-tagged receptors were labeled with a cell-impermeable luminescent terbium cryptate (100 nM SNAP Lumi4-Tb; Cisbio, France) for 1 hr at 37°C. Cells were washed to remove excess terbium and incubated with fluorescein-O-acetic acid (100 μM; Sigma Aldrich) for 5 min at 37°C. Peptides were added as for DMR assays, and internalization responses were recorded for 60 min at 37°C using an EnVision 2104 Multimode plate reader (PerkinElmer). 100 nM GLP-1 was used as a positive control for SNAP-GLP1R internalization. Real-time internalization responses were calculated based on TR-FRET (excitation 340 nm; emission 520 nm and 615 nm), and were expressed as the ratio between donor (terbium) and acceptor (fluorescein) emission. For peptide screening analysis (both DMR and internalization assays), we calculated the area under the curve from the real-time traces. As the magnitude of the responses was variable between orphan receptor targets, particularly for the SNAP-tag based internalization assay where the signal is dependent on receptor surface expression, the AUC values were normalized to their respective plate averages and expressed as fold change. Validation experiments for receptor internalization were performed as above. Internalization data was processed in MS-Excel and area under the curve was used to generate concentration-response curves using GraphPad Prism 7.0. Data represent mean ± standard error of the mean (SEM) from at least 3 biologically independent experiments.
For orientation: TR-FRET usually uses a lanthanide donor and a delayed reading to cut background.

Test [3] concerns the target T2, BB3 (Homo sapiens, UniProt P32247).
T2 construct: hIL-2Ra signal peptide (N); expressed in transfected cells
T2 sequence (P32247 2-399 limits assumed): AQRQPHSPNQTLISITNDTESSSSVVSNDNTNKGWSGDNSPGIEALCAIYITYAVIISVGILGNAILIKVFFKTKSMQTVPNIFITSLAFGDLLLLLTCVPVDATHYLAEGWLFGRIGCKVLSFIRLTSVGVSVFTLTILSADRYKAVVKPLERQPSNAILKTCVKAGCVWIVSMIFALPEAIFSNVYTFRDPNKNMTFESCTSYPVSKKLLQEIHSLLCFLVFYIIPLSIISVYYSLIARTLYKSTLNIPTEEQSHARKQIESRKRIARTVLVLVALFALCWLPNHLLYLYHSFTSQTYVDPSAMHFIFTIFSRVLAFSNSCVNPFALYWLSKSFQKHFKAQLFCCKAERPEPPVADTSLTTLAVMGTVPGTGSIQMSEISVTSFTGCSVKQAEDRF
Kind of test: Dynamic mass redistribution (DMR), concentration-response. In kind it is cell-based.

The subject of test [4] is human GPCRs. Details: method as in Guide to Pharmacology database. To be noted: max reported value, ref Guide to Pharmacology database, cited from earlier work. The source says:
Supplement mmc1.xlsx, sheet "HumanGPCRLigands" | column: pKi_value; pKd_value; pEC50_value; pIC50_value

Test [5] addresses T2, BB3. Kind of test: Real-time receptor internalization (TR-FRET), concentration-response. In kind it is cell-based. To be noted: BB3.
In test [6] the target is T2, BB3. Briefly: IP1 accumulation (Gq/11), HTRF. It counts as cell-based.
For test [7], the target named is T3, BB3 (Homo sapiens, UniProt P32247).
T3 construct: host or cells: HTLA cells (HEK293-derived)
T3 sequence (P32247 1-399): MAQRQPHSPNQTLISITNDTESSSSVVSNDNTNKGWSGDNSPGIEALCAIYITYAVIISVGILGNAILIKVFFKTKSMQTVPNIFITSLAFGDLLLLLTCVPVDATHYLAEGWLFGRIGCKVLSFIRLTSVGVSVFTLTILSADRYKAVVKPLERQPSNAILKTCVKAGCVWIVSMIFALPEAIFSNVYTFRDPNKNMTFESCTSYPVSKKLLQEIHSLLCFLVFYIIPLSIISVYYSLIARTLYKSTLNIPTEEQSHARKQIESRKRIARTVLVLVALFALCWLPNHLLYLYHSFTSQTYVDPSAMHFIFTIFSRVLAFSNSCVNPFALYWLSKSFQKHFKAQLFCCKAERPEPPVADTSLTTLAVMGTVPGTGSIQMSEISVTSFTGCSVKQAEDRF
Briefly: β-arrestin recruitment (Tango), validation. In kind it is cell-based. The following applies: for EC50: HTLA cells transiently transfected, overnight stimulation, luciferase, mean ± SEM of 3-4 independent experiments in triplicate, read-out: pEC50, β-arrestin recruitment (Tango), BB3 (converted). The protocol: The peptide library was additionally screened against 120 GPCR targets in parallel, including all available orphan receptors and 27 known class A peptide receptors using the Tango assay platform ([Kroeze et al., 2015]). Briefly, HTLA cells (a HEK293 cell line stably expressing a tTA-dependent luciferase reporter and a β-arrestin2-TEV fusion gene) were plated 10,000 cells/well in poly-L-lysine–coated clear-bottom white 384-well plates in DMEM supplemented with 10% FBS, 100 U/ml penicillin and 100 μg/ml streptomycin, 2 μg/ml puromycin and 100 μg/ml hygromycin B. 24 hr later, cells were transfected with Tango GPCR constructs using the calcium phosphate method ([Jordan et al., 1996]). The next day, culture medium was changed to DMEM + 1% dFBS and 10 μM peptides were added for overnight stimulation. Bright-Glo solution (Promega) was incubated for 15–20 min at room temperature, and luminescence was counted using a Trilux luminescence counter (Wallac).
For subsequent peptide validation experiments using Tango assays, HTLA cells were transiently transfected in 10 cm dishes with the receptor of interest using polyethylenimine (PEI) ([Longo et al., 2013]). After 24 hr, 25,000 cells/well were plated in clear bottom, white-walled 384-well plates. Assays were performed as described above, with luminescence measured using an EnSpire 2300 Multimode plate reader (PerkinElmer). Luminescence counts were exported into Excel and were analyzed using GraphPad Prism 7.
On the technique in general: Activated receptors often draw arrestin, which recruitment assays turn into a signal.

[8] abbreviates: receptor grpr_human (GRPR, P30550).

T1 sequence (Q15743 whole entry): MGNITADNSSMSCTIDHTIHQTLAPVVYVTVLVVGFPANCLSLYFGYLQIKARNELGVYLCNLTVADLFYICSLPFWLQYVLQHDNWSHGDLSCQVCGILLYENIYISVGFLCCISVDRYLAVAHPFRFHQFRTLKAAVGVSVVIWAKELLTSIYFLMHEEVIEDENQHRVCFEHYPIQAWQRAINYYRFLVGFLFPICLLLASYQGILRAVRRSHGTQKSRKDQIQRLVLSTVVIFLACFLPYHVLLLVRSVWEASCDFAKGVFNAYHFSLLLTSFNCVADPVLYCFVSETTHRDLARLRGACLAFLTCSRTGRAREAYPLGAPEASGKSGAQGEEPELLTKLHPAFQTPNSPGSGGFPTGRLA
Sequence of GPR68 (Q15743 2-365 limits assumed): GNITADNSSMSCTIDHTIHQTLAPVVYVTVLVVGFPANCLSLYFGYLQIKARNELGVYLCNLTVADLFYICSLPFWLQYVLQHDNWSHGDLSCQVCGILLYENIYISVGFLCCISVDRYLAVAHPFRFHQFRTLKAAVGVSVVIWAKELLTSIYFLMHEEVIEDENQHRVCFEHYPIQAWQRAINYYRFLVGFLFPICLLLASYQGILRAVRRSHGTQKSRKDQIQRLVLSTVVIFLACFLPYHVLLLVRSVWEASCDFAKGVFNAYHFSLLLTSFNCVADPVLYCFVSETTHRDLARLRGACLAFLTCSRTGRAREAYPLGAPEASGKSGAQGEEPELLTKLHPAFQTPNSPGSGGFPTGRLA

Turning to `CC[C@H](C)[C@H](NC(=O)[C@H](CCCNC(=N)N)NC(=O)[C@H](CC(=O)O)NC(=O)[C@H](CCSC)NC(=O)[C@@H]1CCCN1C(=O)[C@@H](NC(=O)CNC(=O)[C@H](Cc1ccccc1)NC(=O)[C@@H](N)CCCNC(=N)N)[C@@H](C)CC)C(=O)NCC(=O)N[C@@H](CCCNC(=N)N)C(=O)N[C@@H](CC(N)=O)C(=O)N[C@@H](CCCNC(=N)N)C(=O)N[C@@H](CC(C)C)C(=O)N[C@@H](CO)C(=O)N[C@@H](CC(N)=O)C(=O)N[C@@H](CO)C(=O)N[C@@H](CCCNC(=N)N)C(=O)NCC(=O)O` [Osteocrin_(33-50)] (H-RFGIPMDRIGRNRLSNSRG-OH), the Emax in test [1] is 34.5%. In test [2], the “pEC50, Internalization (AUC)” value was “Response >1uM”.

As to `CSCC[C@H](NC(=O)[C@H](Cc1ccccc1)NC(=O)[C@H](Cc1c[nH]cn1)NC(=O)CNC(=O)[C@@H](NC(=O)[C@H](C)NC(=O)[C@H](Cc1c[nH]c2ccccc12)NC(=O)[C@H](CC(C)C)NC(=O)[C@H](CC(N)=O)NC(=O)CN)[C@@H](C)O)C(N)=O` [Peptide 59, Neuromedin B, reference compound], the EC50 is 0.0372 µM in test [3]; 1.95 µM in test [5] (mean, SEM and n, read-out: pEC50, Internalization (AUC) (converted)); 0.407 µM in test [6] (pEC50, IP1 accumulation (Gq/11), BB3, HTRF IP-One, 30 min, 37°C, mean ± SEM of 3-4 independent experiments in triplicate, peptide 158 n = 2); 2 µM in test [7]. In addition, the “Emax, DMR (peak)” value in test [3] (BB3, mean, SEM and n) is reported as 183.2. Further, in test [4] (setting [8]), the pIC50_value was 7.5. In addition, the pKi_value is on record as 8.1 in test [4] (setting [8]) and 10.3 in test [4] (receptor nmbr_human (NMBR, P28336)). Besides, the “Emax, Internalization (AUC)” value in test [5] (mean, SEM and n) was found to be 26.4. The “Emax, IP1” value in test [6] (BB3, mean, SEM and n) is 81.0 nM. For the same compound, the “Emax, Tango (fold over basal)” value in test [7] (BB3, mean, SEM and n) came out at 5.0 fold over basal. In addition, in test [7] (BB3, mean, SEM and n), the “pEC50, Tango (fold over basal)” value was determined as 5.67.

In the case of `CSCC[C@H](NC(=O)[C@H](CC(C)C)NC(=O)[C@H](Cc1c[nH]cn1)NC(=O)CNC(=O)[C@@H](NC(=O)[C@H](C)NC(=O)[C@H](Cc1c[nH]c2ccccc12)NC(=O)[C@H](Cc1c[nH]cn1)NC(=O)[C@H](CC(N)=O)NC(=O)CNC(=O)[C@H](CCCNC(=N)N)NC(=O)[C@@H]1CCCN1C(=O)[C@H](Cc1ccc(O)cc1)NC(=O)[C@H](CCSC)NC(=O)[C@H](CCCCN)NC(=O)[C@@H](NC(=O)[C@H](CC(C)C)NC(=O)[C@@H](NC(=O)[C@@H](NC(=O)CNC(=O)CNC(=O)CNC(=O)[C@H](C)NC(=O)[C@@H]1CCCN1C(=O)[C@H](CC(C)C)NC(=O)[C@@H]1CCCN1C(=O)[C@@H](N)C(C)C)[C@@H](C)O)C(C)C)[C@@H](C)O)C(C)C)C(N)=O` [Peptide 167, gastrin-releasing peptide, reference compound], in test [4] (setting [8]), the pIC50_value is 10 and the pKi_value is 8.2. In addition, in test [5] (pEC50, internalization), the EC50 is greater than 10 µM. Also, the EC50 in test [7] was greater than 10 µM.

The term Emax denotes the greatest response seen or fitted, relative to the assay's reference.

These data come from article PMC6838683, “Discovery of Human Signaling Systems: Pairing Peptides to G Protein-Coupled Receptors” (Cell, 2019).
